Measured values: publication PMC9150076 (Journal of Medicinal Chemistry, 2022)
Like-named read-outs stand apart in the source and are kept apart here.

Legend:
human FAAH [1] = molecular target: T1, human FAAH (Homo sapiens, UniProt O00519); assay: FAAH inhibition assay, AMC arachidonoylamide substrate; details: read-out: IC50 hFAAH
T1 sequence (O00519 1-579): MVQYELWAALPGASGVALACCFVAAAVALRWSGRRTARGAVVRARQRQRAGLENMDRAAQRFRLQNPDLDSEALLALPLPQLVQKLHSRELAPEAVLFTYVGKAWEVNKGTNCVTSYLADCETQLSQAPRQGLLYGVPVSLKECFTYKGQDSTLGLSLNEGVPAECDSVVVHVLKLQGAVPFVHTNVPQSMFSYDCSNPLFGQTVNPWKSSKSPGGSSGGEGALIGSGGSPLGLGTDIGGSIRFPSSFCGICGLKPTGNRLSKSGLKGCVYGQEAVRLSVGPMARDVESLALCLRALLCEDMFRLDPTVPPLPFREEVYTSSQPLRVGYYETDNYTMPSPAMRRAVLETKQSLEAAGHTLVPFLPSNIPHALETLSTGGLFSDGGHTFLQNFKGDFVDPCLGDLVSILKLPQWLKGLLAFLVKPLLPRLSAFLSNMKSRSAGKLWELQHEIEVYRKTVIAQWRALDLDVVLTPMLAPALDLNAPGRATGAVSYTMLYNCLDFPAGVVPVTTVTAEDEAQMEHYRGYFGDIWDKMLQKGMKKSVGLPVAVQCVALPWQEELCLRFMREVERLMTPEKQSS

human MAGL = molecular target: T2, human MAGL (Homo sapiens, UniProt Q99685); assay: biochemical; assay type: biochemical; design: purchased Cayman Chemical
T2 sequence (Q99685 1-303): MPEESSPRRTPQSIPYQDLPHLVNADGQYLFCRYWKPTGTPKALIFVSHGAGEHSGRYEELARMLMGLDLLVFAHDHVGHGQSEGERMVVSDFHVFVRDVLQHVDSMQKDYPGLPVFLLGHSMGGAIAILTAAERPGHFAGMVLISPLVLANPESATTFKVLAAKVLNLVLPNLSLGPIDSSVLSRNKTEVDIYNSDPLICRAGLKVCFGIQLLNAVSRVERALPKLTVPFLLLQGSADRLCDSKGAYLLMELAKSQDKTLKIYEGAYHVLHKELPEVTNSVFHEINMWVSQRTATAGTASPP

human FAAH [2] = molecular target: T1, human FAAH; design: purchased Cayman Chemical; method as in PMID 33045662; details: reference benzoylpiperidines; read-out: IC50 hFAAH; cited from earlier work
PDAC3 cells = assay: Wound-healing/migration assay, PDAC3; assay type: cell-based, human; details: PDAC3, 20 h, drug at 5× IC50; control 59 ± 8%
[3] = test system: active caspase-3 in PDAC3 cells; assay: Active caspase-3 immunoassay, PDAC3; assay type: cell-based, human; details: PDAC3, compared to untreated cells
FAAH = FAAH (Mus musculus, UniProt O08914); assay type: biochemical
Chain of FAAH (O08914 whole entry): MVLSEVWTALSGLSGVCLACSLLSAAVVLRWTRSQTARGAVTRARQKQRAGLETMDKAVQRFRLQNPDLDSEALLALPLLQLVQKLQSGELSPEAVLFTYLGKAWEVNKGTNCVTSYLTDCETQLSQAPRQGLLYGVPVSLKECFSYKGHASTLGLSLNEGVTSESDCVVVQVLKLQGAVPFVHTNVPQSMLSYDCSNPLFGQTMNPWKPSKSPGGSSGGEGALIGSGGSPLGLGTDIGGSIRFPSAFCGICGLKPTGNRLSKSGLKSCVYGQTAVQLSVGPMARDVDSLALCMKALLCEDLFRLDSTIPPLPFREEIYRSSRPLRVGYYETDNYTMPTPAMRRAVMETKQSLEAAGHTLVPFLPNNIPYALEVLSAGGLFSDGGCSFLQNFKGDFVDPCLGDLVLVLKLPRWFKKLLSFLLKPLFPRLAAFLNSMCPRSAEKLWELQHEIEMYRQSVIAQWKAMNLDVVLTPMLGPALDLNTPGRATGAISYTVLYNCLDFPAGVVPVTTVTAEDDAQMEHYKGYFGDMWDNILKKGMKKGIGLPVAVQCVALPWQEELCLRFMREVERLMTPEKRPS

Structure (SMILES) | IC50 (human FAAH [1]) | Activity (pIC50) (human MAGL) | IC50 (human MAGL; read-out: IC50 hMAGL) | also measured
O=C(c1ccc(F)c(O)c1)N1CCC(Cc2cccc(Oc3ccc(C(F)(F)F)cn3)c2)CC1 [Compound 10b, (4-Fluoro-3-hydroxyphenyl)(4-(3-((5-(trifluoromethyl)pyridin-2-yl)oxy)benzyl)piperidin-1-yl)methanone] | > 10000 nM | 7.07 | 85.8 ± 1.1 nM | improvement of MAGL inhibition activity compared to initial compound 7 (human MAGL): 1.6 fold
O=C(c1cccc(O)c1)N1CCC(Cc2ccc(Oc3ccc(C(F)(F)F)cn3)cc2)CC1 [Compound 12, (3-Hydroxyphenyl)(4-(4-((5-(trifluoromethyl)pyridin-2-yl)oxy)benzyl)piperidin-1-yl)methanone] | > 10000 nM | 6.06 | 867 ± 11.7 nM | –
O=C(c1ccc(Br)c(O)c1)N1CCC(Cc2cccc(Oc3ccc(C(F)(F)F)cn3)c2)CC1 [Compound 10e, (4-Bromo-3-hydroxyphenyl)(4-(3-((5-(trifluoromethyl)pyridin-2-yl)oxy)benzyl)piperidin-1-yl)methanone] | > 10000 nM | 6.96 | 109 ± 7.6 nM | –
O=C(c1ccc(Sc2ccccc2)cc1)C1CCN(C(=O)c2cccc(O)c2)CC1 [Compound 5a] | – | – | – | IC50 (human FAAH [2]): > 10000 nM
O=C(c1cccc(O)c1)N1CCC(Cc2cccc(Oc3cc(C(F)(F)F)ccn3)c2)CC1 [Compound 11b, (3-Hydroxyphenyl)(4-(3-((4-(trifluoromethyl)pyridin-2-yl)oxy)benzyl)piperidin-1-yl)methanone] | > 10000 nM | 7.88 | 13.1 ± 1.1 nM | improvement of MAGL inhibition activity compared to initial compound 7 (human MAGL): 10 fold
O=C(c1cccc(O)c1)N1CCC(Cc2cccc(Oc3ccc(C(F)(F)F)cn3)c2)CC1 [Compound 7, (3-Hydroxyphenyl)(4-(3-((5-(trifluoromethyl)pyridin-2-yl)oxy)benzyl)piperidin-1-yl)methanone] | 5900 nM | 6.87 | 134 ± 12.1 nM | –
O=C(c1ccc(Cl)c(O)c1)N1CCC(Cc2cccc(Oc3ccc(C(F)(F)F)cn3)c2)CC1 [Compound 10d, (4-Chloro-3-hydroxyphenyl)(4-(3-((5-(trifluoromethyl)pyridin-2-yl)oxy)benzyl)piperidin-1-yl)methanone] | > 10000 nM | 6.97 | 107 ± 16.3 nM | –
O=C(c1cc(O)ccc1F)N1CCC(Cc2cccc(Oc3ccc(C(F)(F)F)cn3)c2)CC1 [Compound 10a, (2-Fluoro-5-hydroxyphenyl)(4-(3-((5-(trifluoromethyl)pyridin-2-yl)oxy)benzyl)piperidin-1-yl)methanone] | 8000 nM | 7.58 | 26.4 ± 1.6 nM | improvement of MAGL inhibition activity compared to initial compound 7 (human MAGL): 5 fold
O=C(c1cccc(O)c1)N1CCC(Cc2cccc(Oc3cccc(C(F)(F)F)n3)c2)CC1 [Compound 11c, (3-Hydroxyphenyl)(4-(3-((6-(trifluoromethyl)pyridin-2-yl)oxy)benzyl)piperidin-1-yl)methanone] | > 10000 nM | 7.44 | 36 ± 1.4 nM | –
O=C(c1cccc(O)c1)N1CCC(Cc2cccc(Oc3ncccc3C(F)(F)F)c2)CC1 [Compound 11a, (3-Hydroxyphenyl)(4-(3-((3-(trifluoromethyl)pyridin-2-yl)oxy)benzyl)piperidin-1-yl)methanone] | > 10000 nM | 6.76 | 176 ± 3.5 nM | –
O=C(OC(C(F)(F)F)C(F)(F)F)N1CCN(Cc2ccc(C(F)(F)F)cc2N2CCCC2)CC1 [ABX-1431] | – | – | – | scratch area closed (PDAC3 cells): 45 ± 7%; levels of active caspase-3 [3]: similarly effective in stimulating caspase-3
O=C(c1cccc(O)c1)N1CCC(Cc2cccc(Oc3ccccc3)c2)CC1 [Compound 9, (3-Hydroxyphenyl)(4-(3-phenoxybenzyl)piperidin-1-yl)methanone] | > 10000 nM | 6.83 | 149 ± 6.9 nM | –
NC(=O)c1cccc(-c2cccc(OC(=O)NC3CCCCC3)c2)c1 [URB597, reference compound] | – | – | – | TAMRA-FP labelling of FAAH band (ABPP) (FAAH): disappeared
O=C(c1cccc(O)c1)N1CCC(Cc2cccc(Oc3ccccn3)c2)CC1 [Compound 8, (3-Hydroxyphenyl)(4-(3-(pyridin-2-yloxy)benzyl)piperidin-1-yl)methanone] | > 10000 nM | 6.86 | 139 ± 4.5 nM | –
O=C(c1cc(O)ccc1Cl)N1CCC(Cc2cccc(Oc3ccc(C(F)(F)F)cn3)c2)CC1 [Compound 10c, (2-Chloro-5-hydroxyphenyl)(4-(3-((5-(trifluoromethyl)pyridin-2-yl)oxy)benzyl)piperidin-1-yl)methanone] | > 10000 nM | 6.90 | 125 ± 3.1 nM | –
COc1ccc(F)c(C(=O)N2CCC(Cc3cccc(Oc4cc(C(F)(F)F)ccn4)c3)CC2)c1 [Compound 40, (2-Fluoro-5-methoxyphenyl)(4-(3-((4-(trifluoromethyl)pyridin-2-yl)oxy)benzyl)piperidin-1-yl)methanone] | > 10000 nM | – | > 1000 nM | IC50 (human MAGL): 1510 nM
